Results from patent US7695930B2, “Method for the detection, identification and/or quantification of microoganisms with peptidase activity using phenoxazinone derivatives as enzyme substrates” (Biomerieux, priority 2003, dated 2010).
Read-outs that look alike come from different tables or passages of the source.

Experiments:
Conditions in all cases: 60 mg/l
[1] = system: Enterobacter cloacae (NCTC 11936)
Procedure: (§1) 300 ml of Columbia medium were melted in a waterbath at 100° C. and autoclaved at 121° C. for 15 min. The product was then cooled to 50° C. in a waterbath.
(§2) This medium was separated into 3 flasks of 100 ml, and then, added at 50° C., as substrates, were those of Examples 4 and 6 for which the amino acid is β-alanine (respectively, β-alanine-9-amino-6-carbethoxybenzo[a]phenoxazin-5-one or β-Ala-ACAP and β-alanine-9-amino-6-chlorobenzo[a]phenoxazin-5-one or β-Ala-ACHP), solubilized in DMSO, according to the concentrations indicated in Table 5 below:
(§3) The medium was then poured into Petri dishes.
(§4) Nine microorganism strains derived from the Applicant's collection, suspended in physiological saline, were seeded onto the media prepared in point 14.1 above according to a multipoint inoculation in a proportion of 100 000 cfu/spot. The dishes were incubated at 37° C. for 48 hours. The colonies formed (one colony per strain) were examined visually after incubation for 24 and 48 hours.
(§5) The results are expressed in Table 6 hereinafter according to the rules and the nomenclature stated in paragraph 11.3 and where RP signifies pale pink.

Pseudomonas aeruginosa 3 = system: Pseudomonas aeruginosa 3
Procedure: as §1, §2, §3, §4, §5

Burkholderia cepacia 2 = system: Burkholderia cepacia 2
Procedure: as §1, §2, §3, §4, §5

Burkholderia cepacia 1 = system: Burkholderia cepacia 1
Procedure: as §1, §2, §3, §4, §5

Pseudomonas aeruginosa 2 = system: Pseudomonas aeruginosa 2
Procedure: as §1, §2, §3, §4, §5

[2] = system: Enteroccus faecalis (NCTC 775)
Procedure: as §1, §2, §3, §4, §5

Pseudomonas aeruginosa 1 = system: Pseudomonas aeruginosa 1
Procedure: as §1, §2, §3, §4, §5

[3] = system: Escherichia coli (NCTC 10418)
Procedure: as §1, §2, §3, §4, §5

Candida albicans (NCTC) = system: Candida albicans (NCTC)
Procedure: as §1, §2, §3, §4, §5

Substance | growth diameter ([1]; 24 h) [mm] | growth diameter ([1]; 48 h) [mm] | color of the colony (Pseudomonas aeruginosa 3; 24 h) | growth diameter (Pseudomonas aeruginosa 3; 24 h) [mm] | intensity of coloration, scale 0 to 4 (Pseudomonas aeruginosa 3; 24 h) | growth diameter (Pseudomonas aeruginosa 3; 48 h) [mm] | intensity of coloration, scale 0 to 4 (Pseudomonas aeruginosa 3; 48 h) | growth diameter (Burkholderia cepacia 2; 24 h) [mm] | growth diameter (Burkholderia cepacia 2; 48 h) [mm] | growth diameter (Burkholderia cepacia 1; 24 h) [mm] | growth diameter (Burkholderia cepacia 1; 48 h) [mm] | color of the colony (Pseudomonas aeruginosa 2; 24 h) | growth diameter (Pseudomonas aeruginosa 2; 24 h) [mm] | intensity of coloration, scale 0 to 4 (Pseudomonas aeruginosa 2; 24 h) | growth diameter (Pseudomonas aeruginosa 2; 48 h) [mm] | intensity of coloration, scale 0 to 4 (Pseudomonas aeruginosa 2; 48 h) | growth diameter ([2]; 24 h) [mm] | growth diameter ([2]; 48 h) [mm] | color of the colony (Pseudomonas aeruginosa 1; 24 h) | growth diameter (Pseudomonas aeruginosa 1; 24 h) [mm] | other results
β-alanine-9-amino-6-carbethoxybenzo[a]phenoxazin-5-one [β-Ala-ACAP] | 3 | 3 | R | 1 | 2 | 2 | 3 | 2 | 2 | 2 | 2 | R | 3 | 2 | 3 | 2 | 2 | 2 | R | 3 | color of the colony (Pseudomonas aeruginosa 3; 48 h): R; color of the colony (Pseudomonas aeruginosa 2; 48 h): R; intensity of coloration, scale 0 to 4 (Pseudomonas aeruginosa 1; 24 h): 1; color of the colony (Pseudomonas aeruginosa 1; 48 h): R; growth diameter (Pseudomonas aeruginosa 1; 48 h): 3 mm; intensity of coloration, scale 0 to 4 (Pseudomonas aeruginosa 1; 48 h): 3; growth diameter ([3]; 24 h): 2 mm; growth diameter ([3]; 48 h): 3 mm; growth diameter (Candida albicans (NCTC); 24 h): 2 mm; growth diameter (Candida albicans (NCTC); 48 h): 2 mm
β-alanine-9-amino-6-chlorobenzo[a]phenoxazin-5-one [β-Ala-ACHP] | 2 | 3 | R | 1 | 2 | 2 | 2 | 2 | 2 | 2 | 2 | R | 2 | 2 | 3 | 2 | 1 | 1 | R | 3 | intensity of coloration, scale 0 to 4 (Pseudomonas aeruginosa 1; 24 h): 2; growth diameter (Pseudomonas aeruginosa 1; 48 h): 3 mm; intensity of coloration, scale 0 to 4 (Pseudomonas aeruginosa 1; 48 h): 2; growth diameter ([3]; 24 h): 2 mm; growth diameter ([3]; 48 h): 3 mm; growth diameter (Candida albicans (NCTC); 24 h): 2 mm; growth diameter (Candida albicans (NCTC); 48 h): 2 mm
